Data set [1] in a line: refractive index (Na D-line) (dimensionless). The conditions noted are these: 100 kPa, Liquid, Standard Abbe refractometry.
For data set [2] the following is noted: 100 kPa, Liquid; for speed of sound: Frequency=3 MHz, Single path-length method; for mass density: Vibrating tube method.
Data set [3] can be described thus: xn = mol fraction of the nth substance listed. The conditions noted are these: 100 kPa, Liquid, x2 = 0; for speed of sound: Frequency=3 MHz, Single path-length method; for mass density: Vibrating tube method.
Data set [4] is described as follows: refractive index (Na D-line) (dimensionless); xn = mol fraction of the nth substance listed. Conditions: 100 kPa, Liquid, Standard Abbe refractometry, x2 = 0.

Values joined by “and” are separate entries in the source; they are usually repeats but may differ in a detail not shown here. Equal entries are not always repeated. ± gives the expanded uncertainty stated by the source.

The term refractive index denotes a measure of how strongly the sample bends light. In general, speed of sound refers to how fast a sound wave travels through the sample. The mass density is the mass of a sample divided by its volume.

With `CC(=O)CC(C)C` [4-methylpentan-2-one], the refractive index in data set [1] (293.15 K) is recorded as 1.396 ± 0.005; in data set [1] (303.15 K), 1.391 ± 0.005; in data set [1] (313.15 K) it was 1.387 ± 0.005. Further, the results for the speed of sound in data set [2] (293.15 K), in data set [2] (303.15 K) and in data set [2] (313.15 K) were 1212.3 ± 1.6 m/s, 1171.4 ± 1.6 m/s and 1131.4 ± 1.6 m/s, respectively. Moreover, the mass density in data set [2] (293.15 K) is 801 ± 3 kg/m3 and 800 ± 3 kg/m3; in data set [2] (303.15 K) it was 792 ± 3 kg/m3; in data set [2] (313.15 K), 782 ± 3 kg/m3.

In the case of `CC(C)=O` [acetone], the refractive index stood at 1.359 ± 0.005 in data set [1] (293.15 K), 1.353 ± 0.005 in data set [1] (303.15 K) and 1.348 ± 0.005 in data set [1] (313.15 K). Further, the figures for the speed of sound in data set [2] (293.15 K), in data set [2] (303.15 K) and in data set [2] (313.15 K) were 1184.3 ± 1.4 m/s, 1139.4 ± 1.4 m/s and 1094.6 ± 1.4 m/s, respectively. In addition, the mass density is recorded as 790 ± 3 kg/m3 in data set [2] (293.15 K), 779 ± 3 kg/m3 in data set [2] (303.15 K) and 767 ± 3 kg/m3 in data set [2] (313.15 K).

In the case of `CC(C)=O` [acetone] + CC(=O)CC(C)C, the figures for the speed of sound in data set [3] (293.15 K), in data set [3] (303.15 K) and in data set [3] (313.15 K) were 1184.3 ± 1.4 m/s, 1139.4 ± 1.4 m/s and 1094.6 ± 1.4 m/s, respectively. The mass density is 790 ± 3 kg/m3 in data set [3] (293.15 K), 779 ± 3 kg/m3 in data set [3] (303.15 K) and 767 ± 3 kg/m3 in data set [3] (313.15 K). In addition, the refractive index in data set [4] (293.15 K) amounted to 1.359 ± 0.005; in data set [4] (303.15 K), 1.353 ± 0.005; in data set [4] (313.15 K), 1.348 ± 0.005.

Take `CC#N` [acetonitrile]: the refractive index in data set [1] (293.15 K) is 1.344 ± 0.005; in data set [1] (303.15 K) it was 1.339 ± 0.005; in data set [1] (313.15 K), 1.334 ± 0.005. In addition, the results for the speed of sound in data set [2] (293.15 K), in data set [2] (303.15 K) and in data set [2] (313.15 K) were 1299.7 ± 1.3 m/s, 1258.8 ± 1.3 m/s and 1218.4 ± 1.3 m/s, respectively. Besides, the mass density in data set [2] (293.15 K) was 782 ± 3 kg/m3; in data set [2] (303.15 K), 771 ± 3 kg/m3; in data set [2] (313.15 K) it was 760 ± 3 kg/m3.

With `CC#N` [acetonitrile] + CC(=O)CC(C)C, the speed of sound in data set [3] (293.15 K) worked out at 1299.7 ± 1.3 m/s; in data set [3] (303.15 K), 1258.8 ± 1.3 m/s; in data set [3] (313.15 K) it was 1218.4 ± 1.3 m/s. For the same compound, the mass density in data set [3] (293.15 K) came to 782 ± 3 kg/m3; in data set [3] (303.15 K), 771 ± 3 kg/m3; in data set [3] (313.15 K), 760 ± 3 kg/m3. Moreover, the results for the refractive index in data set [4] (293.15 K), in data set [4] (303.15 K) and in data set [4] (313.15 K) were 1.344 ± 0.005, 1.339 ± 0.005 and 1.334 ± 0.005, respectively.

Consider `C1CCCCC1` [cyclohexane], for which the results for the refractive index in data set [1] (293.15 K), in data set [1] (303.15 K) and in data set [1] (313.15 K) were 1.426 ± 0.005, 1.421 ± 0.005 and 1.415 ± 0.005, respectively. Moreover, the speed of sound in data set [2] (293.15 K) was 1279.5 ± 1.4 m/s; in data set [2] (303.15 K), 1230.1 ± 1.4 m/s; in data set [2] (313.15 K), 1181.8 ± 1.4 m/s. Also, the mass density was 779 ± 3 kg/m3 and 778 ± 3 kg/m3 in data set [2] (293.15 K); 769 ± 3 kg/m3 in data set [2] (303.15 K); 760 ± 3 kg/m3 and 759 ± 3 kg/m3 in data set [2] (313.15 K).

Regarding `C1CCCCC1` [cyclohexane] + CC(=O)CC(C)C, the speed of sound was 1279.5 ± 1.4 m/s in data set [3] (293.15 K), 1230.1 ± 1.4 m/s in data set [3] (303.15 K) and 1181.8 ± 1.4 m/s in data set [3] (313.15 K). The mass density in data set [3] (293.15 K) was 779 ± 3 kg/m3; in data set [3] (303.15 K), 769 ± 3 kg/m3; in data set [3] (313.15 K), 760 ± 3 kg/m3. Also, the refractive index is 1.426 ± 0.005 in data set [4] (293.15 K), 1.421 ± 0.005 in data set [4] (303.15 K) and 1.415 ± 0.005 in data set [4] (313.15 K).

For the compound `C[S+](C)[O-]` [dimethyl sulfoxide], the refractive index in data set [1] (293.15 K) is 1.48 ± 0.005 and 1.479 ± 0.005; in data set [1] (303.15 K), 1.475 ± 0.005; in data set [1] (313.15 K), 1.47 ± 0.005. The speed of sound in data set [2] (293.15 K) was found to be 1504.7 ± 1.4 m/s; in data set [2] (303.15 K) it was 1471 ± 1.4 m/s; in data set [2] (313.15 K), 1437.4 ± 1.4 m/s. The mass density in data set [2] (293.15 K) was found to be 1100 ± 3 kg/m3; in data set [2] (303.15 K), 1090 ± 3 kg/m3; in data set [2] (313.15 K), 1080 ± 3 kg/m3.

With `C[S+](C)[O-]` [dimethyl sulfoxide] + CC(=O)CC(C)C, the speed of sound in data set [3] (293.15 K) is listed as 1504.7 ± 1.4 m/s; in data set [3] (303.15 K), 1471 ± 1.4 m/s; in data set [3] (313.15 K), 1437.4 ± 1.4 m/s. The mass density in data set [3] (293.15 K) was determined as 1100 ± 3 kg/m3; in data set [3] (303.15 K), 1090 ± 3 kg/m3; in data set [3] (313.15 K), 1080 ± 3 kg/m3. Moreover, the refractive index is recorded as 1.48 ± 0.005 in data set [4] (293.15 K), 1.475 ± 0.005 in data set [4] (303.15 K) and 1.47 ± 0.005 in data set [4] (313.15 K).

For the origin of these results see the NIST ThermoML archive (doi:10.1016/j.jct.2017.06.008).
